The values that follow come from article PMC6502651 (ChemMedChem, 2019).

Broadly, the IC50 is the point on the concentration scale where inhibition reaches its midpoint.

For test [1], the system named is 3D7 line of P. falciparum. The test can be described thus: P. falciparum asexual intraerythrocytic growth inhibition. Format: cell-based. The settings on record: for Selectivity index (SI) = (mammalian cell IC50)/(P. falciparum IC50): HepG2 vs Pf3D7.
In the next test the test system is HepG2 cells. Kind of test: HepG2 cytotoxicity bioluminescence assay. The settings on record: Homo sapiens, HepG2, 48 h, read-out: IC50 (HepG2). Format: cell-based.
Test [2] relates to P. berghei exo-erythrocytic forms. Kind of test: P. berghei-Luc liver stage assay. The test is classed as cell-based. The settings on record: for Selectivity index (SI) = (mammalian cell IC50)/(Pb EEF IC50): HepG2 vs Pb EEF; for IC50: Plasmodium berghei, 48 h, read-out: Pb EEF IC50.
For another test, the target named is T1, human HDAC6 (hHDAC6) (Homo sapiens, UniProt Q9UBN7).
T1 sequence (Q9UBN7 1-1215): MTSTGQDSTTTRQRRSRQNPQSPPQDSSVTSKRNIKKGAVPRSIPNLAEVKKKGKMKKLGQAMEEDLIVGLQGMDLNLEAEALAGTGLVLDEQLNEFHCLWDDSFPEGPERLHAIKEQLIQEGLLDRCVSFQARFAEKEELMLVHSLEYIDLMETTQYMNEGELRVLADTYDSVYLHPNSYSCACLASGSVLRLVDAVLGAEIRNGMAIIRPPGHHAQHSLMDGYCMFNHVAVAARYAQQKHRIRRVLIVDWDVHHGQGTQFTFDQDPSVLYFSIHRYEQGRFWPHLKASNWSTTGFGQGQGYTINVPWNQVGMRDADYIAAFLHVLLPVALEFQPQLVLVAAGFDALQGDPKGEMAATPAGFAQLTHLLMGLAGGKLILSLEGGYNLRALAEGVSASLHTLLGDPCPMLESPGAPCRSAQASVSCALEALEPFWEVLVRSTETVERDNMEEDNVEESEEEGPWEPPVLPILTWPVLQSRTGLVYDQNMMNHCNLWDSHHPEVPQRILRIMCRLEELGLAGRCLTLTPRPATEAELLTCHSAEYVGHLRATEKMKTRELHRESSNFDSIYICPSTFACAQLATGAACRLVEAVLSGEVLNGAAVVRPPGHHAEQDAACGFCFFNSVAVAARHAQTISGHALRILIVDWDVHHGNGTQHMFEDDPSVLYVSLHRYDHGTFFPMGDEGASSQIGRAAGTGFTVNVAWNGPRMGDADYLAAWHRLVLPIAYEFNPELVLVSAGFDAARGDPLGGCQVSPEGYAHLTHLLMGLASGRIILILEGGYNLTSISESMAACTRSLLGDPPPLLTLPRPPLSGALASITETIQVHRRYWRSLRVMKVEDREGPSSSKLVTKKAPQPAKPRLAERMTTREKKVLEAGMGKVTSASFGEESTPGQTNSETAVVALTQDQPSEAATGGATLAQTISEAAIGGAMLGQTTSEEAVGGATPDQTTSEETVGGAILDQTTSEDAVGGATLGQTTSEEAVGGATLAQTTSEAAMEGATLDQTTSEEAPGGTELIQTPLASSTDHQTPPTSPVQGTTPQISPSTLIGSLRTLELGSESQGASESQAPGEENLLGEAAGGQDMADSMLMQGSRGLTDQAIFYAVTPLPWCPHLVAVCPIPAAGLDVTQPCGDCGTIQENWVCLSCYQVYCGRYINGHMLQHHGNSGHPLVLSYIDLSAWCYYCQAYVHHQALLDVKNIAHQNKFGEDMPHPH
The test can be described thus: In vitro testing on hHDAC6.

Another test addresses human HDAC1 (hHDAC1) (Homo sapiens, UniProt Q13547). Kind of test: In vitro testing on hHDAC1.
Test [3] concerns mature stage V P. falciparum gametocytes. Kind of test: Gametocytocidal activity. Format: cell-based. The settings on record: Plasmodium falciparum, NF54, 48 h, read-out: Pf stage V gametocytes IC50.
Where [4] appears, read: Plasmodium falciparum, 3D7, read-out: IC50 (Pf3D7), asexual intraerythrocytic stage P. falciparum 3D7.
[5] abbreviates: Plasmodium falciparum, 3D7, read-out: IC50 (Pf3D7).

Molecules are shown by their SMILES. Values joined by “and” are separate entries in the source; they are usually repeats but may differ in a detail not shown here. Equal entries are not always repeated. Where two headings read alike, the source gives them in different places.

Sequence of human HDAC1 (hHDAC1) (Q13547 whole entry): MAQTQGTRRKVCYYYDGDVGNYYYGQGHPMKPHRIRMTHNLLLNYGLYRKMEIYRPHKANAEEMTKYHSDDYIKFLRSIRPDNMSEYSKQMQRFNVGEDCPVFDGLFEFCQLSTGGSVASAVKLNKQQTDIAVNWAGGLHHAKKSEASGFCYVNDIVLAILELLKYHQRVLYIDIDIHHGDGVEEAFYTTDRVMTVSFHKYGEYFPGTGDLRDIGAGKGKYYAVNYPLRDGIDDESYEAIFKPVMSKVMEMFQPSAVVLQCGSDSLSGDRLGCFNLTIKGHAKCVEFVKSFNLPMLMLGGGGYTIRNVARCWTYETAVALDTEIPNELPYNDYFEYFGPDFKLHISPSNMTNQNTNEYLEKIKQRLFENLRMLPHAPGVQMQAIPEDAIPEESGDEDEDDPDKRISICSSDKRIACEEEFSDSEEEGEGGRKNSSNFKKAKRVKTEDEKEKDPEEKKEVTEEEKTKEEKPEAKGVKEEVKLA

`CC(C)c1ccc(C(=O)N(CC(=O)NCc2ccccc2)Cc2ccc(C(=O)NO)cc2)cc1` [Compound 2h, N-(2-(Benzylamino)-2-oxoethyl)-N-(4-(hydroxycarbamoyl)benzyl)-4-isopropylbenzamide]: the “Selectivity index (SI) = (mammalian cell IC50)/(P. falciparum IC50)” value in test [1] was 889–1483 and 889. The IC50 in test [1] (setting [4]) was 0.0052 to 0.0088 µM; in test [1] (read-out: IC50 (Pf3D7), asexual intraerythrocytic stage P. falciparum 3D7) it was 0.0052 µM; in the test on HepG2 cells, 5 to 13 µM; in test [2], 0.016 µM; at human HDAC6 (hHDAC6) it was 0.051 µM; at human HDAC1 (hHDAC1) it was 0.019 µM. The “Selectivity index (SI) = (mammalian cell IC50)/(Pb EEF IC50)” value in test [2] came out at 289. Moreover, the “Selectivity index (SI) = hHDAC1/hHDAC6” value on human HDAC6 (hHDAC6) is under 1.

Regarding `CNC(=O)CN(Cc1ccc(C(=O)NO)cc1)C(=O)c1ccccc1C` [Compound 2t, N-(4-(Hydroxycarbamoyl)benzyl)-2-methyl-N-(2-(methylamino)-2-oxoethyl)benzamide], the “Selectivity index (SI) = (mammalian cell IC50)/(P. falciparum IC50)” value in test [1] is recorded as over 704. In addition, the IC50 in test [1] (setting [4]) was 0.054 to 0.12 µM; in the test on HepG2 cells, over 50 µM; in test [2], 28.1 µM; against human HDAC6 (hHDAC6), 0.032 µM; against human HDAC1 (hHDAC1) it was 2.01 µM. For the same compound, in test [2], the “Selectivity index (SI) = (mammalian cell IC50)/(Pb EEF IC50)” value is listed as over 2. The “Selectivity index (SI) = hHDAC1/hHDAC6” value on human HDAC6 (hHDAC6) is 63.

In the case of `Cc1cc(C)cc(C(=O)N(CC(=O)NC2CCCCC2)c2ccc(C(=O)NO)cc2)c1` [Compound 2b, N-(2-(cyclohexylamino)-2-oxoethyl)-N-(4-(hydroxycarbamoyl)phenyl)-3,5-dimethylbenzamide], in test [1] (setting [5]), the IC50 lay in the range of 0.57 to 77.7 µM. Also, in test [2], the “Selectivity index (SI) = (mammalian cell IC50)/(Pb EEF IC50)” value came to 2 and the IC50 worked out at 20.2 µM.

`CCN(CC)CCCC(C)Nc1ccnc2cc(Cl)ccc12` (stereo not shown) [chloroquine, reference compound]: the IC50 in test [1] (setting [5]) turned out to be 0.0068 µM.

With `COc1ccccc1C(=O)N(CC(=O)NC(C)(C)C)Cc1ccc(C(=O)NO)cc1` [Compound 2f, N-(2-(tert-Butylamino)-2-oxoethyl)-N-(4-(hydroxycarbamoyl)benzyl)-2-methoxybenzamide], the IC50 in test [1] (setting [4]) was 0.11 to 0.25 µM; in the test with HepG2 cells it was over 50 µM; in test [2], 26.7 µM. Besides, the “Selectivity index (SI) = (mammalian cell IC50)/(Pb EEF IC50)” value in test [2] is on record as over 2. Besides, the “Selectivity index (SI) = hHDAC1/hHDAC6” value at human HDAC6 (hHDAC6) is recorded as 82.

With `Cc1cc(C)cc(C(=O)N(CC(=O)NCc2ccccc2)Cc2ccc(C(=O)NO)cc2)c1` [Compound 2j, N-(2-(Benzylamino)-2-oxoethyl)-N-(4-(hydroxycarbamoyl)benzyl)-3,5-dimethylbenzamide], the “Selectivity index (SI) = (mammalian cell IC50)/(P. falciparum IC50)” value in test [1] is given as 259. Further, the IC50 is 0.037 µM in test [1] (setting [5]), 9.57 µM with HepG2 cells and 0.073 µM in test [2]. Besides, the “Selectivity index (SI) = (mammalian cell IC50)/(Pb EEF IC50)” value in test [2] is reported as 131.

For the compound `Cc1cc(C)cc(C(=O)N(CC(=O)NCc2ccc(C(C)(C)C)cc2)Cc2ccc(C(=O)NO)cc2)c1` [Compound 2o, N-(2-((4-(tert-Butyl)benzyl)amino)-2-oxoethyl)-N-(4-(hydroxycarbamoyl)benzyl)-3,5-dimethylbenzamide], in test [2], the “Selectivity index (SI) = (mammalian cell IC50)/(Pb EEF IC50)” value worked out at 2 and the IC50 amounted to 16.6 µM.

For `Cc1cc(C)cc(CNC(=O)CN(Cc2ccc(C(=O)NO)cc2)C(=O)c2cc(C)cc(C)c2)c1` [Compound 2p, N-(2-((3,5-Dimethylbenzyl)amino)-2-oxoethyl)-N-(4-(hydroxycarbamoyl)benzyl)-3,5-dimethylbenzamide], in test [2], the “Selectivity index (SI) = (mammalian cell IC50)/(Pb EEF IC50)” value is listed as 35 and the IC50 was 0.58 µM. In test [3], the IC50 was determined as 5.27 µM.

On to `Cc1cccc(CNC(=O)CN(Cc2ccc(C(=O)NO)cc2)C(=O)c2cc(C)cc(C)c2)c1` [Compound 2q, N-(4-(Hydroxycarbamoyl)benzyl)-3,5-dimethyl-N-(2-((3-methylbenzyl)amino)-2-oxoethyl)benzamide], for which, in test [2], the “Selectivity index (SI) = (mammalian cell IC50)/(Pb EEF IC50)” value was 157 and the IC50 amounted to 0.13 µM.

For `Cc1cc(C)cc(C(=O)N(CC(=O)NCc2cccnc2)Cc2ccc(C(=O)NO)cc2)c1` [Compound 2r, N-(4-(Hydroxycarbamoyl)benzyl)-3,5-dimethyl-N-(2-oxo-2-((pyridin-3-ylmethyl)amino)ethyl)benzamide], in test [1], the “Selectivity index (SI) = (mammalian cell IC50)/(P. falciparum IC50)” value was determined as 530. Moreover, the values for the IC50 (in test [1] (setting [5]); in the test with HepG2 cells; in test [2]) were 0.079 µM, 41.9 µM and 16.7 µM, respectively. The “Selectivity index (SI) = (mammalian cell IC50)/(Pb EEF IC50)” value in test [2] was found to be 3.

Consider `CC(C)c1ccc(C(=O)N(CC(=O)NC2CCCCC2)c2ccc(C(=O)NO)cc2)cc1` [Compound 2a, N-(2-(cyclohexylamino)-2-oxoethyl)-N-(4-(hydroxycarbamoyl)phenyl)-4-isopropylbenzamid], for which the IC50 was 0.57 to 77.7 µM in test [1] (setting [5]) and 9.7 µM in test [2]. The “Selectivity index (SI) = (mammalian cell IC50)/(Pb EEF IC50)” value in test [2] is 4.

Take `Cc1ccccc1C(=O)N(CC(=O)NC(C)(C)C)Cc1ccc(C(=O)NO)cc1` [Compound 2e, N-(2-(tert-Butylamino)-2-oxoethyl)-N-(4-(hydroxycarbamoyl)benzyl)-2-methylbenzamide]: the IC50 with HepG2 cells is over 50 µM. Moreover, in test [2], the “Selectivity index (SI) = (mammalian cell IC50)/(Pb EEF IC50)” value is on record as over 5 and the IC50 is 9.7 µM. Moreover, the “Selectivity index (SI) = hHDAC1/hHDAC6” value at human HDAC6 (hHDAC6) is listed as 47.

`Cc1cc(C)cc(C(=O)N(CC(=O)NCc2ccc(Cl)cc2)Cc2ccc(C(=O)NO)cc2)c1` [Compound 2n, N-(2-((4-Chlorobenzyl)amino)-2-oxoethyl)-N-(4-(hydroxycarbamoyl)benzyl)-3,5-dimethylbenzamide]: in test [2], the “Selectivity index (SI) = (mammalian cell IC50)/(Pb EEF IC50)” value stood at 21 and the IC50 turned out to be 1 µM.

Turning to `Cc1cc(C)cc(C(=O)N(CC(=O)NCc2ccc(F)cc2)Cc2ccc(C(=O)NO)cc2)c1` [Compound 2m, N-(2-((4-Fluorobenzyl)amino)-2-oxoethyl)-N-(4-(hydroxycarbamoyl)benzyl)-3,5-dimethylbenzamide], in test [2], the “Selectivity index (SI) = (mammalian cell IC50)/(Pb EEF IC50)” value came to 185 and the IC50 is 0.11 µM.

With `CN(C)c1ccc(C(=O)N(CC(=O)NCc2ccccc2)Cc2ccc(C(=O)NO)cc2)cc1` [Compound 2i, N-(2-(Benzylamino)-2-oxoethyl)-4-(dimethylamino)-N-(4-(hydroxycarbamoyl)benzyl)benzamide], in test [1], the “Selectivity index (SI) = (mammalian cell IC50)/(P. falciparum IC50)” value is given as 64. Besides, the results for the IC50 (in the test on HepG2 cells; in test [2]; against human HDAC1 (hHDAC1)) were 0.62 µM, 0.022 µM and 0.0077 µM, respectively. Besides, the “Selectivity index (SI) = (mammalian cell IC50)/(Pb EEF IC50)” value in test [2] was determined as 28. Moreover, the “Selectivity index (SI) = hHDAC1/hHDAC6” value at human HDAC6 (hHDAC6) is on record as under 1.

Regarding `Cc1ccc(CNC(=O)CN(Cc2ccc(C(=O)NO)cc2)C(=O)c2cc(C)cc(C)c2)cc1` [Compound 2k, N-(4-(Hydroxycarbamoyl)benzyl)-3,5-dimethyl-N-(2-((4-methylbenzyl)amino)-2-oxoethyl)benzamide], in test [2], the “Selectivity index (SI) = (mammalian cell IC50)/(Pb EEF IC50)” value came to 70 and the IC50 worked out at 0.21 µM.

As for `CC(C)(C)c1ccc(C(=O)N(CC(=O)NCc2ccccc2)Cc2ccc(C(=O)NO)cc2)cc1` [Compound 2g, N-(2-(Benzylamino)-2-oxoethyl)-4-(tert-butyl)-N-(4-(hydroxycarbamoyl)benzyl)benzamide], the “Selectivity index (SI) = (mammalian cell IC50)/(P. falciparum IC50)” value in test [1] is 889–1483. For the same compound, the IC50 in test [1] (setting [5]) was 0.0052 to 0.0088 µM; in the test with HepG2 cells, 5 to 13 µM; in test [2] it was 0.58 µM; at human HDAC6 (hHDAC6) it was 0.071 µM; against human HDAC1 (hHDAC1) it was 0.034 µM. The “Selectivity index (SI) = (mammalian cell IC50)/(Pb EEF IC50)” value in test [2] was determined as 23. The “Selectivity index (SI) = hHDAC1/hHDAC6” value on human HDAC6 (hHDAC6) was under 1.
